The record followed here is patent US9029337B2, “Modulation of factor 7 expression” (Isis Pharmaceuticals, Inc., priority 2007, dated 2015).

Strand notation (5' to 3'): a small letter for the sugar, then the base; units joined by * are phosphorothioate-linked, units joined directly phosphodiester-linked; [ ] holds rarer units or linkages, { } end groups; capitals alone tell only the bases. e = 2'-O-(2-methoxyethyl) (MOE); [5mC] = 5-methylcytosine; d = 2'-deoxy (DNA)

By % Inhibition is commonly meant how much of the control response was suppressed. Higher therefore signals strong suppression.

The test system of this series is human Factor 7 mRNA. Description: Antisense inhibition of human Factor 7 mRNA in HepB3 cells, 50 nM antisense oligonucleotide, lipofectin. In kind it is cell-based. The conditions noted are these: Table 1, 50 nM, lipofectin, approximately 24 hours, relative to untreated control cells. As for the experimental part:
Antisense oligonucleotides targeted to a Factor 7 nucleic acid were tested for their effects on Factor 7 mRNA in vitro. Cultured HepB3 cells at a density of 4,000 cells per well were transfected using lipofectin reagent with 50 nM antisense oligonucleotide. After a treatment period of approximately 24 hours, RNA was isolated from the cells and Factor 7 mRNA levels were measured by real-time RT-PCR, as described herein. Factor 7 mRNA levels were adjusted according to total RNA content as measured by RIBOGREEN®. Results are presented as percent inhibition of Factor 7, relative to untreated control cells.
(§1) Antisense oligonucleotides targeted to a Factor 7 nucleic acid were designed and tested for their effects on Factor 7 mRNA in vitro. Certain antisense oligonucleotides from Table 3 were also retested for their effects on Factor 7 mRNA in vitro. Cultured HepB3 cells at a density of 4,000 cells per well were transfected using lipofectin reagent with 50 nM antisense oligonucleotide. After a treatment period of approximately 24 hours, RNA was isolated from the cells and Factor 7 mRNA levels were measured by real-time RT-PCR, as described herein. Human Factor 7 primer probe set RTS 2927 was used to measure mRNA levels. Factor 7 mRNA levels were adjusted according to total RNA content as measured by RIBOGREEN®. Results are presented as percent inhibition of Factor 7, relative to untreated control.
as §1, with “tested” for “tested for their effects on Factor 7 mRNA in vitro. Certain antisense oligonucleotides from Table 3 were also retested”
These gapmers were designed by creating gapmers shifted slightly upstream and downstream (i.e. “microwalk”) of the original gapmers from Table 7. Gapmers were also created with various motifs, e.g. 5-10-5 MOE, 3-14-3 MOE, and 2-13-5 MOE. These gapmers were tested in vitro. Cultured HepB3 cells at a density of 4,000 cells per well were transfected using lipofectin reagent with 50 nM antisense oligonucleotide. After a treatment period of approximately 24 hours, RNA was isolated from the cells and Factor 7 mRNA levels were measured by real-time RT-PCR. Factor 7 mRNA levels were adjusted according to total RNA content, as measured by RIBOGREEN®. Results are presented as percent inhibition of Factor 7, relative to untreated control cells.
For “403090 (antisense eA*eG*eT*e[5mC]*e[5mC]*dT*dG*dG*dG*dT*d[5mC]*dA*dT*d[5mC]*dA*eG*e[5mC]*e[5mC]*eG*eG) [compound 403090]”, the “% Inhibition” value turned out to be 69%. Turning to “403093 (antisense eG*eA*eG*eA*e[5mC]*d[5mC]*d[5mC]*dT*dG*dG*dT*dG*dT*dA*d[5mC]*eA*e[5mC]*e[5mC]*e[5mC]*e[5mC]) [compound 403093]”, the “% Inhibition” value was 75%.

For “407595 (antisense eT*e[5mC]*e[5mC]*eT*eG*dA*dG*dG*d[5mC]*d[5mC]*dT*dT*dA*dG*d[5mC]*eG*eA*e[5mC]*e[5mC]*e[5mC]) [compound 407595]”, the “% Inhibition” value worked out at 71%. Consider “407596 (antisense eG*eA*eG*eG*e[5mC]*d[5mC]*d[5mC]*d[5mC]*dG*dG*d[5mC]*dT*dT*d[5mC]*d[5mC]*eA*e[5mC]*eG*eG*e[5mC]) [compound 407596]”, for which the “% Inhibition” value is 61%. As to “407597 (antisense eT*eG*eT*eT*eG*dA*d[5mC]*dA*dT*dT*d[5mC]*d[5mC]*d[5mC]*d[5mC]*dA*eT*eG*eG*eG*eA) [compound 407597]”, the “% Inhibition” value turned out to be 39%. As to “407598 (antisense e[5mC]*e[5mC]*eA*eT*eG*dA*dT*dG*dA*dA*dA*dT*d[5mC]*dT*d[5mC]*eT*eG*e[5mC]*eA*eG) [compound 407598]”, the “% Inhibition” value is 72%.

Take “407599 (antisense e[5mC]*e[5mC]*eT*eG*eG*dG*dA*dG*dA*d[5mC]*d[5mC]*dA*dT*dG*dA*eT*eG*eA*eA*eA) [compound 407599]”: the “% Inhibition” value is listed as 73%. The same measure for “407600 (antisense eT*eG*eA*eA*eG*d[5mC]*d[5mC]*d[5mC]*dA*dA*dG*d[5mC]*dA*dG*dA*eA*eG*eG*e[5mC]*eA) [compound 407600]”: 61%; for “407601 (antisense e[5mC]*eA*eG*e[5mC]*e[5mC]*d[5mC]*dT*dG*dA*dA*dG*d[5mC]*d[5mC]*d[5mC]*dA*eA*eG*e[5mC]*eA*eG) [compound 407601]”: 52%. Consider “407602 (antisense e[5mC]*eT*eG*e[5mC]*eA*dG*d[5mC]*d[5mC]*dA*dG*dG*d[5mC]*dA*dG*d[5mC]*e[5mC]*e[5mC]*eT*eG*eA) [compound 407602]”, for which the “% Inhibition” value was 81%.

In the case of “407603 (antisense eT*eA*eA*eG*eA*dA*dA*dT*d[5mC]*d[5mC]*dA*dG*dA*dA*d[5mC]*eA*eG*e[5mC]*eT*eT) [compound 407603]”, the “% Inhibition” value worked out at 54%. Consider “407604 (antisense e[5mC]*eA*e[5mC]*eA*e[5mC]*dT*dG*dG*dT*d[5mC]*d[5mC]*d[5mC]*d[5mC]*dA*dT*e[5mC]*eA*e[5mC]*eT*eG) [compound 407604]”, for which the “% Inhibition” value is reported as 34%.

In the case of “407605 (antisense eT*eT*eG*eA*eG*dG*d[5mC]*dA*d[5mC]*dA*d[5mC]*dT*dG*dG*dT*e[5mC]*e[5mC]*e[5mC]*e[5mC]*eA) [compound 407605]”, the “% Inhibition” value was determined as 58%.

Take “407607 (antisense eT*eG*eG*eA*eG*d[5mC]*dT*dG*dG*dT*d[5mC]*d[5mC]*dT*dT*dG*e[5mC]*eA*eG*eG*eA) [compound 407607]”: the “% Inhibition” value is recorded as 76%.

On to “407608 (antisense eT*eA*eT*eA*eG*dG*dA*d[5mC]*dT*dG*dG*dA*dG*d[5mC]*dT*eG*eG*eT*e[5mC]*e[5mC]) [compound 407608]”, for which the “% Inhibition” value worked out at 13%. The same measure for “407609 (antisense eA*eG*eA*eA*eG*d[5mC]*dA*dG*dA*dT*dA*dT*dA*dG*dG*eA*e[5mC]*eT*eG*eG) [compound 407609]”: 35%.

Turning to “407610 (antisense eA*eG*eG*eG*eA*dG*dG*d[5mC]*dA*dG*dA*dA*dG*d[5mC]*dA*eG*eA*eT*eA*eT) [compound 407610]”, the “% Inhibition” value is on record as 31%. As to “407611 (antisense eT*e[5mC]*eT*e[5mC]*eA*d[5mC]*dA*dG*dT*dT*d[5mC]*d[5mC]*dG*dG*d[5mC]*e[5mC]*e[5mC]*eT*e[5mC]*eG) [compound 407611]”, the “% Inhibition” value is listed as 82%.

Take “407612 (antisense eA*eG*eA*eT*e[5mC]*dA*dG*d[5mC]*dT*dG*dG*dT*d[5mC]*dA*dT*e[5mC]*e[5mC]*eT*eT*eG) [compound 407612]”: the “% Inhibition” value is 82%. As to “407613 (antisense eT*eG*e[5mC]*eT*e[5mC]*dA*d[5mC]*dA*dG*d[5mC]*d[5mC]*dG*d[5mC]*d[5mC]*dG*eT*eT*e[5mC]*eT*e[5mC]) [compound 407613]”, the “% Inhibition” value is 66%. For “407614 (antisense eT*eG*e[5mC]*eA*eG*dT*dA*d[5mC]*dT*dG*d[5mC]*dT*d[5mC]*dA*d[5mC]*eA*eG*e[5mC]*e[5mC]*eG) [compound 407614]”, the “% Inhibition” value amounted to 78%. Take “407615 (antisense eG*eA*e[5mC]*eA*e[5mC]*d[5mC]*d[5mC]*d[5mC]*dG*dT*d[5mC]*dT*dG*d[5mC]*d[5mC]*eA*eG*e[5mC]*eA*eG) [compound 407615]”: the “% Inhibition” value amounted to 65%.

Regarding “407616 (antisense eT*eG*e[5mC]*eA*eG*dG*dA*d[5mC]*dA*d[5mC]*d[5mC]*d[5mC]*d[5mC]*dG*dT*e[5mC]*eT*eG*e[5mC]*e[5mC]) [compound 407616]”, the “% Inhibition” value was 64%. With “407617 (antisense eT*e[5mC]*e[5mC]*eA*e[5mC]*dA*dT*dG*dG*dA*dT*dA*dT*dT*d[5mC]*eA*eA*e[5mC]*eT*eG) [compound 407617]”, the “% Inhibition” value amounted to 67%.

In the case of “407618 (antisense eG*eT*eA*eT*eT*dT*dT*dT*d[5mC]*d[5mC]*dA*d[5mC]*dA*dT*dG*eG*eA*eT*eA*eT) [compound 407618]”, the “% Inhibition” value is recorded as 42%.

Regarding “407619 (antisense eA*eG*eA*eA*eT*dA*dG*dG*dT*dA*dT*dT*dT*dT*dT*e[5mC]*e[5mC]*eA*e[5mC]*eA) [compound 407619]”, the “% Inhibition” value was found to be 64%. The same measure for “407620 (antisense eA*eG*eG*eA*e[5mC]*d[5mC]*dT*dG*d[5mC]*d[5mC]*dA*dT*dG*dG*dA*e[5mC]*eA*e[5mC]*eT*e[5mC]) [compound 407620]”: 79%. As to “407621 (antisense eA*e[5mC]*eA*eA*e[5mC]*dA*dG*dG*dA*d[5mC]*d[5mC]*dT*dG*d[5mC]*d[5mC]*eA*eT*eG*eG*eA) [compound 407621]”, the “% Inhibition” value was 62%.

For “407622 (antisense eT*e[5mC]*eA*e[5mC]*e[5mC]*dA*dA*d[5mC]*dA*dA*d[5mC]*dA*dG*dG*dA*e[5mC]*e[5mC]*eT*eG*e[5mC]) [compound 407622]”, the “% Inhibition” value worked out at 55%. The same measure for “407623 (antisense eT*e[5mC]*e[5mC]*eA*eT*dT*d[5mC]*dA*d[5mC]*d[5mC]*dA*dA*d[5mC]*dA*dA*e[5mC]*eA*eG*eG*eA) [compound 407623]”: 69%; for “407624 (antisense eG*eA*eG*eA*e[5mC]*d[5mC]*dA*d[5mC]*d[5mC]*d[5mC]*dA*dG*dA*dT*dG*eG*eT*eG*eT*eT) [compound 407624]”: 73%; for “407625 (antisense eT*eT*eG*eT*e[5mC]*dG*dA*dA*dA*d[5mC]*dA*dG*dT*dG*dG*eG*e[5mC]*e[5mC]*eG*e[5mC]) [compound 407625]”: 100%. On to “407626 (antisense eT*e[5mC]*eT*eT*eG*dA*dT*dT*dT*dT*dG*dT*d[5mC]*dG*dA*eA*eA*e[5mC]*eA*eG) [compound 407626]”, for which the “% Inhibition” value stood at 82%.

With “407627 (antisense eG*e[5mC]*e[5mC]*e[5mC]*eA*dG*d[5mC]*dA*d[5mC]*d[5mC]*dG*d[5mC]*dG*dA*dT*e[5mC]*eA*eG*eG*eT) [compound 407627]”, the “% Inhibition” value came out at 79%. With “407628 (antisense eT*eG*eA*eT*eG*dA*d[5mC]*d[5mC]*dT*dG*d[5mC]*dG*d[5mC]*d[5mC]*dA*e[5mC]*e[5mC]*e[5mC]*eG*e[5mC]) [compound 407628]” the figure was 38%. Regarding “407629 (antisense eT*e[5mC]*eA*eG*eT*dG*dA*dG*dG*dA*d[5mC]*d[5mC]*dA*d[5mC]*dG*eG*eG*e[5mC]*eT*eG) [compound 407629]”, the “% Inhibition” value is given as 34%. With “407630 (antisense e[5mC]*eA*e[5mC]*eA*eT*dG*dG*dT*d[5mC]*dA*dG*dT*dG*dA*dG*eG*eA*e[5mC]*e[5mC]*eA) [compound 407630]” the figure was 29%.
